# Measured values reported in patent publication US8394971B2, “Indole derivatives as selective androgen receptor modulators (SARMS)” (Janssen Pharmaceutica N.V., priority 2004, dated 2013).
# Values joined by “and” are separate entries in the source; they are usually repeats but may differ in a detail not shown here. Equal values may be shown once.
# Assays:
# [1] = biological target: T1, androgen receptor (adenovirus AdEasy+rAR in COS-7 cells) (Rattus norvegicus, UniProt P15207); experiment: COS-7 Whole-Cell Androgen Receptor Binding Assay, Adenovirus Transduction; details: COS binding; 3000 nM unless otherwise noted
# T1 construct: expressed in transfected cells
# T1 sequence (P15207 1-902): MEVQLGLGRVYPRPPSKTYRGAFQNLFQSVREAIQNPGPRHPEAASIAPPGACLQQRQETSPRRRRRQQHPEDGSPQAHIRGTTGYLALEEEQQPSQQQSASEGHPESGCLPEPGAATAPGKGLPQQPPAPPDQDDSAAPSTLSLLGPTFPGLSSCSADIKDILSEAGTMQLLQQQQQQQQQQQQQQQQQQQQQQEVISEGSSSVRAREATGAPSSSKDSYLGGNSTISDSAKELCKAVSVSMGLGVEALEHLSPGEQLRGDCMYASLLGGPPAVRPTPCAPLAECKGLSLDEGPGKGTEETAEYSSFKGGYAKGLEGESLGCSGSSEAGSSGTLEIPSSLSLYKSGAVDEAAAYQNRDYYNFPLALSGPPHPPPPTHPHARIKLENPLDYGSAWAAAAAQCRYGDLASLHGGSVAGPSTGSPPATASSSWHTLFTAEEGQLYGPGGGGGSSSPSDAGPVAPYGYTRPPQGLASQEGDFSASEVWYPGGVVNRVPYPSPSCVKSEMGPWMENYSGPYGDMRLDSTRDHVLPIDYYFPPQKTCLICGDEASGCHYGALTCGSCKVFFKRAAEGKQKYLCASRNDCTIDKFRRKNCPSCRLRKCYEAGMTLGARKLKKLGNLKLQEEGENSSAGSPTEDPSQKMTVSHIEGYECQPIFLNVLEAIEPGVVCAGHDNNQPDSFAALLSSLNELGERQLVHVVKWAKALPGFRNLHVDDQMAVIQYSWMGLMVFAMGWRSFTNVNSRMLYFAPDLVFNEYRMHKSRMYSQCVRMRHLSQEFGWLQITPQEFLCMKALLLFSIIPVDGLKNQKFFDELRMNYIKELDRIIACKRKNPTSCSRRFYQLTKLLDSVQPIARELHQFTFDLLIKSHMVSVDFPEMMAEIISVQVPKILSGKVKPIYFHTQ
# Description: COS-7 cells were plated in 96-well plates at 20,000 cells per well, in a solution of DMEM/F12 (GIBCO) containing 10% (v/v) charcoal-treated fetal bovine serum (Hyclone) and lacking phenol red. The cells were then incubated overnight at 37° C. in 5% (v/v) humidified CO2.
# Test compound solutions were prepared by diluting the test compound in 100% (v/v) DMSO, if necessary.
# Next, 1 mL of DMEM/F12 lacking phenol red was pipetted into each of the wells of a 2-mL 96-well assay block. […] The wells were carefully mixed by pipette.
# In a 15 mL or 50 mL sterile centrifuge tube, a dilution in DMEM/F12 of the adenovirus AdEasy+rAR at a moi of 1:50 per well was prepared.
# The medium was removed from the 96-well plates by inversion and the plates dried very briefly, inverted, on a sterile towel. As soon as possible after medium removal, 40 μL of the diluted test compound was added to each well, in duplicate. […] The plates were then incubated for 48 hours at 37° C. in 5% (v/v) humidified CO2.
# The medium was removed from the above incubated plates by inversion and dried. Each well was then washed with 0.35 mL of 1×PBS. The PBS was then removed from the plates by inversion and the plates dried.
# To each well was then added 50 μL of 0.5% (v/v) Triton X-100 (Sigma) in 1×PBS and the plates placed on a rotary shaker for 5 min. The contents of each well were then transferred to an OptiPlate-96 (Packard) scintillation plate. To each well was then added 0.2 mL of Microscint-20 (Packard) and the wells counted on a TopCount (Packard).
# […] Counts per well were measured and percents of inhibition determined. […] Counts per well were measured and IC50s determined by linear regression.
# [2] = biological target: T2, androgen receptor (adenovirus AdEasy+rAR in L929 cells) (Rattus norvegicus, UniProt P15207); experiment: L929 Androgen Receptor Functional Assay, Adenovirus Transduction; format: cell-based; details: L929 agonist testing
# T2 construct: expressed in transfected cells
# T2 sequence (P15207 1-902): T1 sequence (P15207 1-902)
# How it was run: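 L929 cells in phenol red-free, charcoal-stripped serum medium transduced with AdEasy+rAR (moi 1:500) and exposed 48 h at 37 °C to compound alone (agonist mode) or with R1881 (antagonist mode; 2.5 nM as the 2.5× dilution).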
# [3] = tested on: testosterone-enhanced ventral prostate and seminal vesicle weights in castrated male Sprague Dawley rats; experiment: Ventral Prostate and Seminal Vesicle Weight In Vivo Assay; design: species or system rat; details: immature castrated rats; once daily for five days, usually orally at 40 mg/kg, with testosterone propionate 2 mg/kg s.c.
# How it was run: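 Immature (~50 g) castrated Sprague Dawley rats dosed once daily for five days with compound (usually oral, 40 mg/kg, cyclodextrin or methylcellulose vehicle) plus testosterone propionate 2 mg/kg s.c. Wet ventral prostate and seminal vesicle weights taken on day six; activity judged by prostate weight or body-weight-adjusted % inhibition.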
compound,measurement,setting,value
"CC[S+]([O-])C[C@](C)(O)c1cc2cc([N+](=O)[O-])c(C(F)(F)F)cc2[nH]1 (stereo in doubt) [Compound #155, 1-Ethanesulfinyl-2-(5-nitro-6-trifluoromethyl-1H-indol-2-yl)-propan-2-ol]",inhibition at 3 µM,[1],35%
same,% Activity,[2]; 3000 nM,2%
same,active / inactive (inhibition of testosterone-enhanced prostate weight),[3],inactive
"CCS(=O)(=O)C[C@](C)(O)c1cc2cc([N+](=O)[O-])c(C(F)(F)F)cc2[nH]1 [Compound #156, 1-Ethanesulfonyl-2-(5-nitro-6-trifluoromethyl-1H-indol-2-yl)-propan-2-ol]",% Inhibition,[1],52%
same,inhibition at 3 µM,[1],42%
same,% Activity,[2]; 3000 nM,2%
same,active / inactive (inhibition of testosterone-enhanced prostate weight),[3],inactive
CC(O)(CCS(C)(=O)=O)c1cc2cc([N+](=O)[O-])c(C(F)(F)F)cc2[nH]1 (centres unmarked) [compound 49],inhibition at 3 µM,[1],30%
same,% Activity,[2]; 3000 nM,2%
same,active / inactive (inhibition of testosterone-enhanced prostate weight),[3],inactive
CC(O)(CSc1ccc(N)cc1)c1cc2cc(Cl)c(C(F)(F)F)cc2[nH]1 (centres unmarked) [compound 104],inhibition at 3 µM,[1],94%
same,% Activity,[2]; 3000 nM,9%
same,active / inactive (inhibition of testosterone-enhanced prostate weight),[3],inactive
CC(O)(CS(=O)(=O)c1ccc(N)cc1)c1cc2cc(Cl)c(C(F)(F)F)cc2[nH]1 (centres unmarked) [compound 118],inhibition at 3 µM,[1],62%
same,% Activity,[2]; @ 8000 nM,−2 @ 8000 nM %
same,active / inactive (inhibition of testosterone-enhanced prostate weight),[3],inactive
CN(C)c1ccccc1SCC(C)(O)c1cc2cc(Cl)c(C(F)(F)F)cc2[nH]1 (centres unmarked) [compound 127],% Inhibition,[1],41% and 74%
same,% Activity,[2]; 3000 nM,−5%
same,active / inactive (inhibition of testosterone-enhanced prostate weight),[3],inactive
COc1ccc(SCC(C)(O)c2cc3cc(Cl)c(C(F)(F)F)cc3[nH]2)cc1 (centres unmarked) [compound 131],inhibition at 3 µM,[1],84%
same,% Activity,[2]; 3000 nM,−5%
same,active / inactive (inhibition of testosterone-enhanced prostate weight),[3],inactive
CSCC(C)(O)c1cc2cc(Cl)c(C(F)(F)F)cc2[nH]1 (centres unmarked) [compound 135],inhibition at 3 µM,[1],98%
same,% Activity,[2]; 3000 nM,0%
same,active / inactive (inhibition of testosterone-enhanced prostate weight),[3],inactive
CSCC(C)(O)c1cc2cc(C#N)c(C(F)(F)F)cc2[nH]1 (centres unmarked) [compound 136],inhibition at 3 µM,[1],4.8%
same,% Activity,[2]; 3000 nM,0%
same,active / inactive (inhibition of testosterone-enhanced prostate weight),[3],active
CC(O)(CS(C)(=O)=O)c1cc2cc(Cl)c(C(F)(F)F)cc2[nH]1 (centres unmarked) [compound 138],inhibition at 3 µM,[1],78%
same,% Activity,[2]; 3000 nM,0%
same,active / inactive (inhibition of testosterone-enhanced prostate weight),[3],inactive
CSCC(C)(O)c1cc2cc([N+](=O)[O-])c(C(F)(F)F)cc2[nH]1 (centres unmarked) [compound 139],% Inhibition,[1],97%
same,inhibition at 3 µM,[1],94%
same,% Activity,"[2]; 3000 nM, 3 µM",0% and 1%
same,active / inactive (inhibition of testosterone-enhanced prostate weight),[3],active
CC(O)(CS(C)(=O)=O)c1cc2cc([N+](=O)[O-])c(C(F)(F)F)cc2[nH]1 (centres unmarked) [compound 140],% Inhibition,[1],51.5%
same,% Activity,[2]; 3000 nM,0%
same,active / inactive (inhibition of testosterone-enhanced prostate weight),[3],active
CCSCC(C)(O)c1cc2cc([N+](=O)[O-])c(C(F)(F)F)cc2n1S(C)(=O)=O (centres unmarked) [compound 141],inhibition at 3 µM,[1],42%
same,% Activity,[2]; 3000 nM,0%
same,active / inactive (inhibition of testosterone-enhanced prostate weight),[3],inactive
CCS(=O)(=O)CC(C)(O)c1cc2cc([N+](=O)[O-])c(C(F)(F)F)cc2[nH]1 (centres unmarked) [compound 143],inhibition at 3 µM,[1],68%
same,% Activity,[2]; 3000 nM,0%
same,active / inactive (inhibition of testosterone-enhanced prostate weight),[3],active
CCSCC(O)c1cc2cc([N+](=O)[O-])c(C(F)(F)F)cc2[nH]1 (centres unmarked) [compound 158],% Inhibition,[1],56%
same,inhibition at 3 µM,[1],62%
same,% Activity,"[2]; 3000 nM, 3 µM",3% and 2%
same,active / inactive (inhibition of testosterone-enhanced prostate weight),[3],inactive
CCSCC(C)(O)c1cc2cc(F)c(C(F)(F)F)cc2[nH]1 (centres unmarked) [compound 159],inhibition at 3 µM,[1],90%
same,% Activity,[2]; 3000 nM,2%
same,active / inactive (inhibition of testosterone-enhanced prostate weight),[3],active
CC(O)(CSCc1ccccc1)c1cc2cc([N+](=O)[O-])c(C(F)(F)F)cc2[nH]1 (centres unmarked) [compound 160],inhibition at 3 µM,[1],84%
same,% Activity,[2]; 3000 nM,1%
same,active / inactive (inhibition of testosterone-enhanced prostate weight),[3],inactive
CC(C)SCC(C)(O)c1cc2cc([N+](=O)[O-])c(C(F)(F)F)cc2[nH]1 (centres unmarked) [compound 164],inhibition at 3 µM,[1],68%
same,% Activity,[2]; 3000 nM,2%
same,active / inactive (inhibition of testosterone-enhanced prostate weight),[3],inactive
CCCSCC(C)(O)c1cc2cc([N+](=O)[O-])c(C(F)(F)F)cc2[nH]1 (centres unmarked) [compound 168],inhibition at 3 µM,[1],60%
same,% Activity,[2]; 3000 nM,3%
same,active / inactive (inhibition of testosterone-enhanced prostate weight),[3],inactive
CCSCC(O)(CC)c1cc2cc([N+](=O)[O-])c(C(F)(F)F)cc2[nH]1 (centres unmarked) [compound 169],inhibition at 3 µM,[1],90%
same,% Activity,[2]; 3000 nM,2%
same,active / inactive (inhibition of testosterone-enhanced prostate weight),[3],active
CC(O)(CSCC(F)(F)F)c1cc2cc([N+](=O)[O-])c(C(F)(F)F)cc2[nH]1 (centres unmarked) [compound 171],% Inhibition,[1],94%
same,inhibition at 3 µM,[1],92%
same,% Activity,"[2]; 3000 nM, 3 µM",11%
same,% Activity,[2]; @ 8000 nM,−1 @ 8000 nM %
same,active / inactive (inhibition of testosterone-enhanced prostate weight),[3],active
CC(O)(CSC1CCCC1)c1cc2cc([N+](=O)[O-])c(C(F)(F)F)cc2[nH]1 (centres unmarked) [compound 173],inhibition at 3 µM,[1],17%
same,% Activity,[2]; 3000 nM,2%
same,active / inactive (inhibition of testosterone-enhanced prostate weight),[3],inactive
CCC(O)(CS(=O)(=O)CC)c1cc2cc([N+](=O)[O-])c(C(F)(F)F)cc2[nH]1 (centres unmarked) [compound 176],inhibition at 3 µM,[1],75%
same,% Activity,[2]; 3000 nM,3%
same,active / inactive (inhibition of testosterone-enhanced prostate weight),[3],active
CCCS(=O)(=O)CC(C)(O)c1cc2cc([N+](=O)[O-])c(C(F)(F)F)cc2[nH]1 (centres unmarked) [compound 177],inhibition at 3 µM,[1],90%
same,% Activity,[2]; 3000 nM,2%
same,active / inactive (inhibition of testosterone-enhanced prostate weight),[3],active
CCC(O)(CSCC(F)(F)F)c1cc2cc([N+](=O)[O-])c(C(F)(F)F)cc2[nH]1 (centres unmarked) [compound 185],inhibition at 3 µM,[1],92%
same,% Activity,[2]; 3000 nM,2%
same,active / inactive (inhibition of testosterone-enhanced prostate weight),[3],active
CC(O)(CSCC(F)(F)F)c1cc2cc(F)c(C(F)(F)F)cc2[nH]1 (centres unmarked) [compound 189],inhibition at 3 µM,[1],100%
same,% Activity,[2]; 3000 nM,3%
same,active / inactive (inhibition of testosterone-enhanced prostate weight),[3],inactive
CC(O)(CSCC(F)(F)F)c1cc2cc(Cl)c(C(F)(F)F)cc2[nH]1 (centres unmarked) [compound 190],inhibition at 3 µM,[1],100%
same,% Activity,[2]; 3000 nM,1%
same,active / inactive (inhibition of testosterone-enhanced prostate weight),[3],active
CCC(O)(CS(=O)(=O)CC(F)(F)F)c1cc2cc([N+](=O)[O-])c(C(F)(F)F)cc2[nH]1 (centres unmarked) [compound 191],inhibition at 3 µM,[1],65%
same,% Activity,[2]; 3000 nM,2%
same,active / inactive (inhibition of testosterone-enhanced prostate weight),[3],active
CCC(O)(CSCC(F)(F)F)c1cc2cc(Cl)c(C(F)(F)F)cc2[nH]1 (centres unmarked) [compound 192],inhibition at 3 µM,[1],86%
same,% Activity,[2]; 3000 nM,8%
same,active / inactive (inhibition of testosterone-enhanced prostate weight),[3],active
